Experimental data: PubChem BioAssay AID330 (DTP/NCI, 2004)
Where “and” joins values, the source holds several entries; their conditions need not be identical. Equal values may be shown once. Inconclusive results and toxic doses are left out. Peptide text beside a SMILES is read from it. * marks the point of attachment. Cbz = O=C(OCc1ccccc1)*; Bn = c1ccc(C*)cc1; NHNH2 = NN*

System: P388 leukemia ip, CD2F1 mice, survival T/C
Assay: NCI In Vivo Anticancer Drug Screen. Data for tumor model P388 Leukemia (intraperitoneal) in CD2F1 (CDF1) mice
Conditions: endpoint: median survival time, higher = longer survival
Procedure, shortened: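 Mice carrying the transplanted tumor received test compound or vehicle. Survival was recorded in each group, and the value is the treated-group measurement divided by that of the vehicle-treated control group.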

[1] = dose: 50.0 mg/kg/injection, schedule: Q01DX005 (ip), vehicle: Klucel (hydroxypropylcellulose) (HPC)
[2] = dose: 100.0 mg/kg/injection, schedule: Q01DX005 (ip), vehicle: Klucel (hydroxypropylcellulose) (HPC)
[3] = dose: 12.5 mg/kg/injection, schedule: Q01DX009 (ip), vehicle: saline
[4] = dose: 50.0 mg/kg/injection, schedule: Q01DX009 (ip), vehicle: saline
[5] = dose: 100.0 mg/kg/injection, schedule: Q01DX009 (ip), vehicle: saline
[6] = dose: 100.0 mg/kg/injection, schedule: Q01DX001 (ip), vehicle: Klucel (hydroxypropylcellulose) (HPC)
[7] = dose: 200.0 mg/kg/injection, schedule: Q01DX001 (ip), vehicle: Klucel (hydroxypropylcellulose) (HPC)
[8] = dose: 60.0 mg/kg/injection, schedule: Q01DX005 (ip), vehicle: saline with Tween-80
[9] = dose: 120.0 mg/kg/injection, schedule: Q01DX005 (ip), vehicle: saline with Tween-80
[10] = dose: 6.25 mg/kg/injection, schedule: Q01DX009 (ip), vehicle: saline with Tween-80
[11] = dose: 12.5 mg/kg/injection, schedule: Q01DX009 (ip), vehicle: saline with Tween-80
[12] = dose: 25.0 mg/kg/injection, schedule: Q01DX009 (ip), vehicle: saline with Tween-80
[13] = dose: 50.0 mg/kg/injection, schedule: Q01DX009 (ip), vehicle: saline with Tween-80
[14] = dose: 100.0 mg/kg/injection, schedule: Q04DX003 (ip), vehicle: saline with Tween-80
[15] = dose: 200.0 mg/kg/injection, schedule: Q01DX009 (ip), vehicle: saline with Tween-80
[16] = dose: 100.0 mg/kg/injection, schedule: Q01DX009 (ip), vehicle: saline with Tween-80
[17] = dose: 3.13 mg/kg/injection, schedule: Q01DX009 (ip), vehicle: saline with Tween-80

## O=S1Nc2ccccc2[C@H]2[C@@H]1[C@H]1O[C@@H]2c2ccccc21 (some centres undefined)
[1]
  T/C: 112 % of control
[2]
  T/C: 105 % of control
dose: 240.0 mg/kg/injection, schedule: Q01DX005 (ip), vehicle: Klucel (hydroxypropylcellulose) (HPC)
  T/C: 101 % of control

## CC(O)CN(CCN(CC(C)O)CC(C)O)CC(C)O.[Cl-].[Co+2] (centres undefined)
[3]
  T/C: 108 % of control and 111 % of control
dose: 25.0 mg/kg/injection, schedule: Q01DX009 (ip), vehicle: saline
  T/C: 107 % of control and 110 % of control
[4]
  T/C: 111 % of control and 112 % of control and 119 % of control
[5]
  T/C: 123 % of control and 92 % of control

## C1=C(OC(=Nc2ccccc2)N2CCOCC2)N=C(OC(=Nc2ccccc2)N2CCOCC2)/C1=C1\C=C(OC(=Nc2ccccc2)N2CCOCC2)N=C1OC(=Nc1ccccc1)N1CCOCC1
[6]
  T/C: 104 % of control
[7]
  T/C: 107 % of control
dose: 400.0 mg/kg/injection, schedule: Q01DX001 (ip), vehicle: Klucel (hydroxypropylcellulose) (HPC)
  T/C: 106 % of control

## Cc1ccc(-n2c(=S)n(-c3ccccc3C)c3nc4ccccc4nc2/c3=N\Nc2ccccc2)cc1
[8]
  T/C: 100 % of control
[9]
  T/C: 93 % of control

## CCCCCc1cc(O)c2c(c1)OC(C)(CCC=C(C)C)C=C2 (centres undefined)
[10]
  T/C: 100 % of control
[11]
  T/C: 110 % of control
[12]
  T/C: 109 % of control
[13]
  T/C: 112 % of control

## Cc1cc(Cl)c(C)c(Cl)c1Cl
[14]
  T/C: 95 % of control
dose: 200.0 mg/kg/injection, schedule: Q04DX003 (ip), vehicle: saline with Tween-80
  T/C: 95 % of control
dose: 400.0 mg/kg/injection, schedule: Q04DX003 (ip), vehicle: saline with Tween-80
  T/C: 91 % of control

## CC(=O)OC(NC(=O)c1cc(C)cc(C)c1)c1ccncc1 (centres undefined)
[1]
  T/C: 97 % of control
[2]
  T/C: 86 % of control

## OCC1OC([Se])C(O)C(O)C1O.[CH3][Sb][CH3] (centres undefined)
[8]
  T/C: 112 % of control
[9]
  T/C: 104 % of control

## CCOC1OCN(C2CCCCC2)CC1(C)C (centres undefined)
[13]
  T/C: 109 % of control
[15]
  T/C: 110 % of control

## CC(C)SC1NC(=O)N(C)C1=O (centres undefined)
[13]
  T/C: 100 % of control
[16]
  T/C: 107 % of control
[15]
  T/C: 100 % of control

## O=C1OC2(CCCCC2)OC(=O)C1=C/C=C/c1ccc([N+](=O)[O-])o1
[17]
  T/C: 93 % of control
[10]
  T/C: 88 % of control
[11]
  T/C: 102 % of control
[12]
  T/C: 102 % of control
[13]
  T/C: 100 % of control

## Clc1cccc2nnc(Br)n12
dose: 50.0 mg/kg/injection, schedule: Q01DX001 (ip), vehicle: Klucel (hydroxypropylcellulose) (HPC)
  T/C: 98 % of control
[6]
  T/C: 102 % of control
[7]
  T/C: 111 % of control

## CN(/N=C/c1ccccc1)c1nnnn1-c1ccccc1
dose: 50.0 mg/kg/injection, schedule: Q01DX005 (ip), vehicle: saline + Tween-80 + alcohol
  T/C: 103 % of control
dose: 100.0 mg/kg/injection, schedule: Q01DX005 (ip), vehicle: saline + Tween-80 + alcohol
  T/C: 97 % of control
dose: 200.0 mg/kg/injection, schedule: Q01DX005 (ip), vehicle: saline + Tween-80 + alcohol
  T/C: 89 % of control

## COc1ccc(C(=O)/C=N/O)cc1
dose: 25.0 mg/kg/injection, schedule: Q04DX003 (ip), vehicle: saline with Tween-80
  T/C: 95 % of control
dose: 50.0 mg/kg/injection, schedule: Q04DX003 (ip), vehicle: saline with Tween-80
  T/C: 95 % of control
[14]
  T/C: 86 % of control

## CSC(=S)N/N=C\C(C)=N/N=C(N)N
dose: 3.12 mg/kg/injection, schedule: Q01DX009 (ip), vehicle: saline
  T/C: 101 % of control
dose: 6.25 mg/kg/injection, schedule: Q01DX009 (ip), vehicle: saline
  T/C: 101 % of control
[3]
  T/C: 107 % of control

## O=C(Nc1ccc(C(=O)O)c(O)c1)Nc1ccccc1C(F)(F)F
[8]
  T/C: 103 % of control
[9]
  T/C: 90 % of control
dose: 240.0 mg/kg/injection, schedule: Q01DX005 (ip), vehicle: saline with Tween-80
  T/C: 103 % of control

## COC(=O)Nc1csc2c1NC(=O)CCCC2
dose: 200.0 mg/kg/injection, schedule: Q04DX003 (ip), vehicle: Klucel (hydroxypropylcellulose) (HPC)
  T/C: 110 % of control
dose: 400.0 mg/kg/injection, schedule: Q04DX003 (ip), vehicle: Klucel (hydroxypropylcellulose) (HPC)
  T/C: 105 % of control

## NC=NCC(=O)O
[4]
  T/C: 96 % of control
[5]
  T/C: 100 % of control
dose: 200.0 mg/kg/injection, schedule: Q01DX009 (ip), vehicle: saline
  T/C: 99 % of control

## O=c1cnn(C2OC(CO)C(O)C2Cl)c(=O)[nH]1 (centres undefined)
dose: 4.06 mg/kg/injection, schedule: Q01DX009 (ip), vehicle: saline
  T/C: 99 % of control
dose: 8.12 mg/kg/injection, schedule: Q01DX009 (ip), vehicle: saline
  T/C: 108 % of control
dose: 16.25 mg/kg/injection, schedule: Q01DX009 (ip), vehicle: saline
  T/C: 101 % of control
dose: 32.5 mg/kg/injection, schedule: Q01DX009 (ip), vehicle: saline
  T/C: 101 % of control
dose: 65.0 mg/kg/injection, schedule: Q01DX009 (ip), vehicle: saline
  T/C: 106 % of control
dose: 130.0 mg/kg/injection, schedule: Q01DX009 (ip), vehicle: saline
  T/C: 102 % of control

## NNC(=O)C(Cc1ccc(O)cc1)NC(=O)C(CSCc1ccccc1)NC(=O)OCc1ccccc1 (centres undefined) (Cbz-Cys(Bn)-Tyr-NHNH2; configuration not given here)
dose: 50.0 mg/kg/injection, schedule: Q01DX009 (ip), vehicle: Klucel (hydroxypropylcellulose) (HPC)
  T/C: 93 % of control
dose: 100.0 mg/kg/injection, schedule: Q01DX009 (ip), vehicle: Klucel (hydroxypropylcellulose) (HPC)
  T/C: 91 % of control
dose: 200.0 mg/kg/injection, schedule: Q01DX009 (ip), vehicle: Klucel (hydroxypropylcellulose) (HPC)
  T/C: 89 % of control

## Fc1cc(F)c(F)c(OCC2CO2)c1F (centres undefined)
[13]
  T/C: 100 % of control
[16]
  T/C: 94 % of control
[15]
  T/C: 101 % of control

## CC(=O)Nc1ccc(Nc2cc(S(=O)(=O)O)c(N)c3c2C(=O)c2ccccc2C3=O)cc1
dose: 60.0 mg/kg/injection, schedule: Q01DX005 (ip), vehicle: saline
  T/C: 92 % of control
dose: 120.0 mg/kg/injection, schedule: Q01DX005 (ip), vehicle: saline
  T/C: 95 % of control
dose: 240.0 mg/kg/injection, schedule: Q01DX005 (ip), vehicle: saline
  T/C: 92 % of control

## CC(C)(C)C1CCC(NC(=O)c2ccccc2)CC1 (centres undefined)
[17]
  T/C: 99 % of control
[10]
  T/C: 99 % of control
[11]
  T/C: 93 % of control
[12]
  T/C: 99 % of control

## CC(=O)[O][Hg][c]1s[c]([Hg][O]C(C)=O)[c]([Hg][O]C(C)=O)[c]1[Hg][O]C(C)=O
dose: 3.0 mg/kg/injection, schedule: Q01DX009 (ip), vehicle: saline with Tween-80
  T/C: 120 % of control
dose: 4.0 mg/kg/injection, schedule: Q01DX009 (ip), vehicle: saline with Tween-80
  T/C: 109 % of control
dose: 6.0 mg/kg/injection, schedule: Q01DX009 (ip), vehicle: saline with Tween-80
  T/C: 104 % of control
dose: 9.0 mg/kg/injection, schedule: Q01DX009 (ip), vehicle: saline with Tween-80
  T/C: 90 % of control

## C=C[CH2][Sn]([CH2]C)([CH2]C)[CH2]C=C
dose: 12.5 mg/kg/injection, schedule: Q01DX005 (ip), vehicle: saline
  T/C: 107 % of control
dose: 25.0 mg/kg/injection, schedule: Q01DX005 (ip), vehicle: saline
  T/C: 114 % of control
dose: 100.0 mg/kg/injection, schedule: Q01DX005 (ip), vehicle: saline
  T/C: 154 % of control
